Legend:
[1] = target: Melanocyte-stimulating hormone receptor (Homo sapiens, UniProt Q01726); test: Inhibition of [125I]NDP-alpha-MSH binding to melanocortin-1 receptor expressed in HEK293 cells; assay type: cell-based
Melanocortin receptor 3 [2] = target: T1, Melanocortin receptor 3 (Homo sapiens, UniProt P41968); test: Inhibition of [125I]-NDP-alpha-MSH binding to melanocortin-3 receptor expressed in HEK293 cells; assay type: cell-based
Melanocortin receptor 5 = Melanocortin receptor 5 (Homo sapiens, UniProt P33032); test: Inhibition of [125I]NDP-alpha-MSH binding to melanocortin-5 receptor expressed in HEK293 cells; assay type: cell-based
Sequence of Melanocortin receptor 5 (P33032 whole entry): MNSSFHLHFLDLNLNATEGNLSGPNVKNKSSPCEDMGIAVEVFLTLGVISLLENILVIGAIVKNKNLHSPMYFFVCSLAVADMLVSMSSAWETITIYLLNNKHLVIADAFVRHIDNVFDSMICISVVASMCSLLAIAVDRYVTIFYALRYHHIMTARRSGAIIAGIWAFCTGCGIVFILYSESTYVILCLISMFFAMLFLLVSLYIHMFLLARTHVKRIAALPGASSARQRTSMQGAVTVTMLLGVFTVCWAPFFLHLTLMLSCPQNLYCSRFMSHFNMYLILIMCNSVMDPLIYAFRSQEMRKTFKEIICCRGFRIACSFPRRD

Melanocortin receptor 4 [3] = target: T2, Melanocortin receptor 4 (Homo sapiens, UniProt P32245); test: Agonist activity at human Melanocortin-4 receptor as peptide required for 50% maximal cAMP release (n > or =2); assay type: functional
T2 sequence (P32245 whole entry): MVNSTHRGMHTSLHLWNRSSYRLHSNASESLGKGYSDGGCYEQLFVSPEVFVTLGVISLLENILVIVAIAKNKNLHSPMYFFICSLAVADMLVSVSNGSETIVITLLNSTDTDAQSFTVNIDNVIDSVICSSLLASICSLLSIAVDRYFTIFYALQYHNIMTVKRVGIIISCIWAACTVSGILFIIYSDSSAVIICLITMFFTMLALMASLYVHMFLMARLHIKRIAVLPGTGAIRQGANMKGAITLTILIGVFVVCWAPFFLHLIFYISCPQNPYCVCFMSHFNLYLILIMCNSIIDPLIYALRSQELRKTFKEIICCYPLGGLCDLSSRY

Melanocortin receptor 4 [4] = target: T2, Melanocortin receptor 4; test: Inhibition of [125I]NDP-alpha-MSH binding to melanocortin-4 receptor expressed in HEK293 cells; assay type: cell-based
Melanocortin receptor 4 [5] = target: Melanocortin receptor 4 (Rattus norvegicus, UniProt P70596); test: Binding affinity for rat melanocortin-4 receptor
Sequence of Melanocortin receptor 4 (Rattus norvegicus, UniProt P70596) (P70596 whole entry): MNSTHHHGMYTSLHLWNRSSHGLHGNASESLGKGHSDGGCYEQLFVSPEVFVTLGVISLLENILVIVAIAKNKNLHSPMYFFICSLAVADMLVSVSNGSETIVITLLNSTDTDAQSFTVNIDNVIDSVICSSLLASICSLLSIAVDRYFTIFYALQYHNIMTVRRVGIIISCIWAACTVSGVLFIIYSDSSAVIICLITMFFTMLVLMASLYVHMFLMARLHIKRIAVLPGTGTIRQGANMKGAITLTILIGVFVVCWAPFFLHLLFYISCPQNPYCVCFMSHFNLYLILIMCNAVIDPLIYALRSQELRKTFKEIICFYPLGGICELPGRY

Melanocortin receptor 3 [6] = target: T1, Melanocortin receptor 3; test: Agonist activity at human Melanocortin-3 receptor as peptide required for 50% maximal cAMP release; assay type: functional

T1 sequence (P41968 whole entry): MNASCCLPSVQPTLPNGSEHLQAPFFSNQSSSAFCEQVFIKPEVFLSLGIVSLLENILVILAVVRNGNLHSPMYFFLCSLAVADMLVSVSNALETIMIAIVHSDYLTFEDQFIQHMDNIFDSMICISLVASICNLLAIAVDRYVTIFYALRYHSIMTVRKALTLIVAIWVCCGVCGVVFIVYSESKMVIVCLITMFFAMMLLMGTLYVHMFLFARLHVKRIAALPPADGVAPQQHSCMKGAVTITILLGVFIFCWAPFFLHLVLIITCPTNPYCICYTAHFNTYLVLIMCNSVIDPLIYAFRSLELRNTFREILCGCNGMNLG
Sequence of Melanocyte-stimulating hormone receptor (Q01726 whole entry): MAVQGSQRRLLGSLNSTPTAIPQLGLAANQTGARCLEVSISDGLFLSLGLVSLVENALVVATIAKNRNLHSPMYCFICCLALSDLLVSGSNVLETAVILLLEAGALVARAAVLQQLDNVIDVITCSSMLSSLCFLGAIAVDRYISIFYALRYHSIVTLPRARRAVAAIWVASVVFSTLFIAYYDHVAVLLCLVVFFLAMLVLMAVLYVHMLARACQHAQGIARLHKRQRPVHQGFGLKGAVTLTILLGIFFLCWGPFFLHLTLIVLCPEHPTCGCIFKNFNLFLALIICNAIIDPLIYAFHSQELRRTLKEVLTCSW

| Compound | Ki [1] [nM] | Ki (Melanocortin receptor 3 [2]) [nM] | Ki (Melanocortin receptor 5) [nM] | EC50 (Melanocortin receptor 4 [3]) [nM] | Ki (Melanocortin receptor 4 [4]) [nM] | Ki (Melanocortin receptor 4 [5]) [nM] | EC50 (Melanocortin receptor 3 [6]) [nM] |
| --- | --- | --- | --- | --- | --- | --- | --- |
| CC(=O)N[C@@H](Cc1ccc(O)cc1)C(=O)N[C@@H](CCCNC(=N)N)C(=O)N[C@H]1CSSC[C@@H](C(N)=O)NC(=O)[C@H](Cc2c[nH]c3ccccc23)NC(=O)[C@H](CCCNC(=N)N)NC(=O)[C@@H](Cc2ccccc2)NC(=O)[C@H](Cc2cncn2C)NC(=O)[C@H](CCC(=O)O)NC1=O | > 500 | > 500 | > 500 | 0.54 | 6.6 | – | – |
| CC(=O)N[C@@H](Cc1ccc(O)cc1)C(=O)N[C@@H](CCCNC(=N)N)C(=O)N[C@H]1CSSC[C@@H](C(N)=O)NC(=O)[C@H](Cc2c[nH]c3ccccc23)NC(=O)[C@H](CCCNC(=N)N)NC(=O)[C@@H](Cc2ccccc2)NC(=O)[C@H](Cc2c[nH]cn2)NC(=O)[C@H](CCC(=O)O)NC1=O | 17.1 | – | > 500 | 0.27 | 0.77 | 0.52 | – |
| CC(=O)N[C@H](CCCNC(=N)N)C(=O)N[C@H]1CSSC[C@@H](C(N)=O)NC(=O)[C@H](Cc2c[nH]c3ccccc23)NC(=O)[C@H](CCCNC(=N)N)NC(=O)[C@@H](Cc2ccccc2)NC(=O)[C@H](Cc2c[nH]cn2)NC(=O)[C@H](CCC(=O)O)NC1=O | 16.8 | 56.8 | > 500 | – | – | 0.39 | 1.61 |
| CC(=O)N[C@H]1CSSC[C@@H](C(N)=O)NC(=O)[C@H](Cc2c[nH]c3ccccc23)NC(=O)[C@H](CCCNC(=N)N)NC(=O)[C@@H](Cc2ccccc2)NC(=O)[C@H](Cc2c[nH]cn2)NC(=O)[C@H](CCC(=O)O)NC1=O | 67.1 | – | > 500 | – | – | – | – |
| CC(=O)N[C@@H](Cc1ccc(O)cc1)C(=O)N[C@@H](CCCN=C(N)N)C(=O)N[C@H]1CSSC[C@@H](C(N)=O)NC(=O)[C@H](Cc2c[nH]c3ccccc23)NC(=O)[C@H](CCCN=C(N)N)NC(=O)[C@H](Cc2ccccc2)NC(=O)[C@H](Cc2c[nH]cn2)NC(=O)[C@H](CCC(=O)O)NC1=O | 147 | > 500 | > 500 | 5.24 | 30.5 | – | – |
| CC(=O)N[C@@H](Cc1ccc(O)cc1)C(=O)N[C@@H](CCCNC(N)=O)C(=O)N[C@H]1CSSC[C@@H](C(N)=O)NC(=O)[C@H](Cc2c[nH]c3ccccc23)NC(=O)[C@H](CCCNC(=N)N)NC(=O)[C@@H](Cc2ccccc2)NC(=O)[C@H](Cc2c[nH]cn2)NC(=O)[C@H](CCC(=O)O)NC1=O | 49.4 | 313 | > 500 | 0.79 | 2.54 | – | – |
| CC(=O)N[C@@H](Cc1ccc(O)cc1)C(=O)N[C@@H](CCCN=C(N)N)C(=O)N[C@H]1CSSC[C@@H](C(N)=O)NC(=O)[C@H](Cc2c[nH]c3ccccc23)NC(=O)[C@H](CCCN=C(N)N)NC(=O)[C@@H](Cc2ccc3ccccc3c2)NC(=O)[C@H](Cc2c[nH]cn2)NC(=O)[C@H](CCC(=O)O)NC1=O | 121 | 6.84 | 37.8 | 0.65 | 0.3 | – | – |

Compounds with a lower Ki [1], results first:

| Ki [1] [nM] | Ki (Melanocortin receptor 3 [2]) [nM] | Ki (Melanocortin receptor 5) [nM] | EC50 (Melanocortin receptor 4 [3]) [nM] | Ki (Melanocortin receptor 4 [4]) [nM] | Ki (Melanocortin receptor 4 [5]) [nM] | EC50 (Melanocortin receptor 3 [6]) [nM] | Compound |
| --- | --- | --- | --- | --- | --- | --- | --- |
| 0.57 | 7.91 | > 500 | 0.24 | 0.52 | – | – | CC(=O)N[C@@H](Cc1ccc(O)cc1)C(=O)N[C@@H](CCCN=C(N)N)C(=O)N[C@H]1CSSC[C@@H](C(=O)N[C@@H](CO)C(=O)N2CCC[C@H]2C(=O)N2CCC[C@H]2C(=O)N[C@@H](CCCCN)C(=O)N[C@@H](CC(=O)O)C(N)=O)NC(=O)[C@H](Cc2c[nH]c3ccccc23)NC(=O)[C@H](CCCN=C(N)N)NC(=O)[C@@H](Cc2ccccc2)NC(=O)[C@H](Cc2c[nH]cn2)NC(=O)[C@H](CCC(=O)O)NC1=O |
| 0.21 | 1.44 | 0.84 | 0.16 | 0.55 | – | – | CSCC[C@H](NC(=O)[C@H](CCCNC(=N)N)NC(=O)[C@H](Cc1ccc(O)cc1)NC(C)=O)C(=O)N[C@@H](CCC(=O)O)C(=O)N[C@@H](Cc1cnc[nH]1)C(=O)N[C@H](Cc1ccccc1)C(=O)N[C@@H](CCCNC(=N)N)C(=O)N[C@@H](Cc1c[nH]c2ccccc12)C(=O)NCC(N)=O |
| 9.91 | 15.9 | 239 | 0.12 | 0.28 | – | – | CC(=O)N[C@@H](Cc1ccc(O)cc1)C(=O)N[C@@H](CCCNC(=N)N)C(=O)N[C@H]1CSSC[C@@H](C(N)=O)NC(=O)[C@H](Cc2c[nH]c3ccccc23)NC(=O)[C@H](CCCNC(=N)N)NC(=O)[C@@H](Cc2ccc(F)cc2)NC(=O)[C@H](Cc2c[nH]cn2)NC(=O)[C@H](CCC(=O)O)NC1=O |
| 10.3 | 33.8 | > 500 | – | – | – | 0.68 | CC(=O)N[C@@H](CCCNC(=N)N)C(=O)N[C@H]1CSSC[C@@H](C(N)=O)NC(=O)[C@H](Cc2c[nH]c3ccccc23)NC(=O)[C@H](CCCNC(=N)N)NC(=O)[C@@H](Cc2ccccc2)NC(=O)[C@H](Cc2c[nH]cn2)NC(=O)[C@H](CCC(=O)O)NC1=O |
| 15.8 | – | > 500 | 0.1 | 1.22 | – | – | CC(=O)N[C@@H](Cc1ccc(O)cc1)C(=O)N[C@@H](CCCCN)C(=O)N[C@H]1CSSC[C@@H](C(N)=O)NC(=O)[C@H](Cc2c[nH]c3ccccc23)NC(=O)[C@H](CCCNC(=N)N)NC(=O)[C@@H](Cc2ccccc2)NC(=O)[C@H](Cc2c[nH]cn2)NC(=O)[C@H](CCC(=O)O)NC1=O |
| 0.89 | 10.6 | 76.9 | – | – | – | – | CSCC[C@H](NC(=O)[C@H](CCCN=C(N)N)NC(=O)[C@H](Cc1ccc(O)cc1)NC(=O)[C@@H]1CCCN1C(=O)CNC(=O)[C@H](CCC(=O)O)NC(=O)[C@H](CC(=O)O)NC(=O)[C@H](CCCCN)NC(=O)[C@H](CCCCN)NC(=O)[C@H](CCC(=O)O)NC(=O)[C@H](C)N)C(=O)N[C@@H](CCC(=O)O)C(=O)N[C@@H](Cc1c[nH]cn1)C(=O)N[C@@H](Cc1ccccc1)C(=O)N[C@@H](CCCN=C(N)N)C(=O)N[C@@H](Cc1c[nH]c2ccccc12)C(=O)NCC(=O)N[C@@H](CO)C(=O)N1CCC[C@H]1C(=O)N1CCC[C@H]1C(=O)N[C@@H](CCCCN)C(=O)N[C@@H](CC(=O)O)C(=O)O |
| 0.09 | 0.11 | 0.26 | 0.56 | 0.27 | – | – | CSCC[C@H](NC(=O)[C@H](CCCNC(=N)N)NC(=O)[C@H](Cc1ccc(O)cc1)NC(C)=O)C(=O)N[C@@H](CCC(=O)O)C(=O)N[C@@H](Cc1cnc[nH]1)C(=O)N[C@H](Cc1ccccc1)C(=O)N[C@@H](CCCNC(=N)N)C(=O)N[C@@H](Cc1c[nH]c2ccccc12)C(=O)NCC(=O)N[C@@H](CO)C(=O)N1CCC[C@H]1C(=O)N1CCC[C@H]1C(=O)N[C@@H](CCCCN)C(=O)N[C@@H](CC(=O)O)C(N)=O |
| 8.22 | 3.12 | 42.2 | 0.06 | 0.14 | – | – | CC(=O)N[C@@H](Cc1ccc(O)cc1)C(=O)N[C@@H](CCCNC(=N)N)C(=O)N[C@H]1CSSC[C@@H](C(N)=O)NC(=O)[C@H](Cc2c[nH]c3ccccc23)NC(=O)[C@H](CCCNC(=N)N)NC(=O)[C@@H](Cc2ccc(Cl)cc2)NC(=O)[C@H](Cc2c[nH]cn2)NC(=O)[C@H](CCC(=O)O)NC1=O |
| 2.73 | 166 | 62.1 | 0.92 | 13.2 | – | – | CSC[C@H](NC(=O)[C@H](Cc1c[nH]c2ccccc12)NC(=O)[C@H](CCCNC(=N)N)NC(=O)[C@@H](Cc1ccccc1)NC(=O)[C@H](Cc1cnc[nH]1)NC(=O)[C@H](CCC(=O)O)NC(=O)[C@H](CSC)NC(=O)[C@H](CCCNC(=N)N)NC(=O)[C@H](Cc1ccc(O)cc1)NC(C)=O)C(N)=O |
| 0.51 | 9.23 | 24.8 | 0.67 | 5.28 | – | – | H-GPYRMEHFRWGSPPKD-NH2 |

— ChEMBL document CHEMBL1143618, “Discovery of a beta-MSH-derived MC-4R selective agonist” (J Med Chem, 2005)
